Data from patent US20200115357A1, “LIVER X RECEPTORS (LXR) MODULATORS” (Phenex-FXR GmbH, priority 2017, published 2020).
pEC50: −log10 of the molar value.

Tests used:
[1] = target: T1, GST-LXRβ ligand-binding domain (Homo sapiens, UniProt P55055, DUP175-175); assay: TR-FRETβ activity assay (LXRβ-LBD / NCoA3 coactivator peptide, prestimulated with 24(S)-25-epoxycholesterol); assay type: biochemical; set-up: key to behavior in FRET assay: ag=agonist; ia=inverse agonist; conditions: for pEC50: 1 μM 24(S)-25-epoxycholesterol as prestimulating agonist, read-out: FRETβ activity range (EC50); for behavior in FRET assay: agonist or inverse agonist
T1 construct: amino acids 156-461; NP009052; made in house; host or cells: E. coli
T1 sequence (P55055 with tags, fused parts or gaps DUP175-175): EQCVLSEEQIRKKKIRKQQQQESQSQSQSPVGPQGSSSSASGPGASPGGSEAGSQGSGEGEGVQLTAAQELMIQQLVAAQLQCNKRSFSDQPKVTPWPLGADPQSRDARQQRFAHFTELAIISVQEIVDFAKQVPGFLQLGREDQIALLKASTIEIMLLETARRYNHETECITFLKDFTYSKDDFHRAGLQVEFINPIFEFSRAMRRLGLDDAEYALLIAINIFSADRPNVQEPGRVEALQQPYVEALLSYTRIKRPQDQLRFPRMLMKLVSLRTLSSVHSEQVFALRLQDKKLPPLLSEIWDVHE
In short: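 E. coli-expressed GST-LXRβ LBD (aa 156-461) at 76 nM with biotinylated NCoA3 coactivator peptide (400 nM), in 240 mM KCl, BSA and Triton-X-100. Anti-GST-Tb cryptate/streptavidin-XL665 TR-FRET after 1 h equilibration at 4 °C, excitation 340 nm, emission 615 and 665 nm. Run in triplicate.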

[2] = target: T2, LXRα ligand-binding domain (LBD) (Homo sapiens, UniProt Q13133); assay: LXR Gal4 reporter transient transfection assay (M2H), Gal4α LBD; assay type: cell-based; conditions: HEK293 cells; read-out: M2H Gal4α LBD activity range (EC50)
T2 construct: expressed in transfected cells; host or cells: HEK293
T2 sequence (Q13133 155-447): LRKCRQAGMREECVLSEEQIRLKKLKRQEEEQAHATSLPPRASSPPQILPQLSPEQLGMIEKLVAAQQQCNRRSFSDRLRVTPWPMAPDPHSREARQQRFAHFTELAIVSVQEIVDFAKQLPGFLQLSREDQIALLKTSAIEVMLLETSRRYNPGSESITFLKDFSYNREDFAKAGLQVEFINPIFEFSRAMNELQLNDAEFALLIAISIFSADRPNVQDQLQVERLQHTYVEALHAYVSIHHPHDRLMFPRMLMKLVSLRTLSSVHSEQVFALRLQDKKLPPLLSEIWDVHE
In short: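 Mammalian two-hybrid in HEK293 cells transiently transfected with LXRα/β full-length or LBD fused to NFkB activation domain, plus GAL4-DBD fusions of SRC1 coactivator or NCoR corepressor domains and a GAL4-responsive firefly luciferase reporter. Compounds added 4 h post-transfection (vehicle ≤0.2% DMSO), 16 h incubation; firefly luciferase normalized to Renilla.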

Row | Structure (SMILES) | pEC50 [1] | behavior in FRET assay [1] | pEC50 [2]
1 | Cc1cc(C)c(S(=O)(=O)N(Cc2ccc(C(F)(F)F)o2)Cc2ccc(-c3cccc(C(C)(C)C(=O)O)c3)cc2Cl)c(C)c1 [10/5] | > 7.00 | ia | > 7.00
2 | Cc1cc(C)c(S(=O)(=O)N(Cc2ccc(-c3cccc(S(=O)(=O)CC(=O)O)c3)cc2)Cc2ccc(C(F)(F)F)o2)c(C)c1 [Example 5, 2-((4′-(((2,4,6-Trimethyl-N-((5-(trifluoromethyl)furan-2-yl)methyl)phenyl)sulfonamido)methyl)-[1,1′-biphenyl]-3-yl)sulfonyl)acetic acid] | 5.00 to 6.00 |  | 
3 | Cc1cc(C)c(S(=O)(=O)N(Cc2ccc(-c3cccc(CC(=O)O)c3)cc2)Cc2ccc(C(F)(F)F)o2)c(C)c1 [Example 2, 2-(4′-(((2,4,6-Trimethyl-N-((5-(trifluoromethyl)furan-2-yl)methyl)phenyl)sulfonamido)methyl)-[1,1′-biphenyl]-3-yl)acetic acid] | 6.00 to 7.00 | ia | 6.00 to 7.00
4 | Cc1ccc2ccccc2c1S(=O)(=O)N(Cc1ccc(-c2cccc(C(C)(C)C(=O)O)c2)cc1)Cc1ccc(C(F)(F)F)o1 [Example 24, 2-Methyl-2-(4′-(((2-methyl-N-((5-(trifluoromethyl)furan-2-yl)methyl)naphthalene)-1-sulfonamido)methyl)-[1,1′-biphenyl]-3-yl)propanoic acid] | > 7.00 | ia | > 7.00
5 | Cc1ccc2ccccc2c1S(=O)(=O)N(Cc1ccc(-c2cccc(S(=O)(=O)CC(=O)O)c2)cc1)Cc1cccc(C(F)(F)F)c1 [11/19] | 5.00 to 6.00 | ia | 
6 | Cc1cc(C)c(S(=O)(=O)N(Cc2ccc(-c3cccc(C(C)(C)C(=O)O)c3)cc2)Cc2ccc(C(F)(F)F)o2)c(C)c1 [7/5] | 6.00 to 7.00 | ia | > 7.00
7 | Cc1cc(C)c(S(=O)(=O)N(Cc2ccc(-c3cccc(CC(=O)O)c3)cc2)C(C)c2ccc(C(F)(F)F)o2)c(C)c1 (stereo not drawn) [2/2] | 6.00 to 7.00 | ia | > 7.00
8 | Cc1cc(C)c(S(=O)(=O)N(Cc2ccc(-c3cc(F)c(CO)c(S(C)(=O)=O)c3)cc2)Cc2ccc(C(F)(F)F)o2)c(C)c1 [Example C3/2] | > 7.00 | ia | > 7.00
9 | COc1cc(-c2cccc(C(C)(C)C(=O)O)c2)ccc1CN(Cc1ccc(C(F)(F)F)o1)S(=O)(=O)c1c(C)cc(C)cc1C [10/4] | > 7.00 | ia | > 7.00
10 | Cc1cc(C)c(S(=O)(=O)N(Cc2ccc(-c3cccc(S(=O)(=O)C(C)(C)C(=O)O)c3)cc2)Cc2ccc(C(F)(F)F)o2)c(C)c1 [5/2] | 5.00 to 6.00 | ia | 6.00 to 7.00
